Laboratory results taken from patent publication US20260224588A1, “BENZODIAZEPINONE-DERIVED INHIBITORS OF EGFR AND HER2” (The Research Foundation for the State University of New York, priority 2023, published 2026).

Key:
EGFR WT = target: T1, EGFR WT (Homo sapiens, UniProt P00533); assay: Time-dependent kinase inhibition assay (Sox-based substrate); type: biochemical
T1 construct: EGFR WT, cytoplasmic domain (669-1210), GST-tagged, Carna; purchased Carna 08-115
Procedure: (§1) Time-dependent Kinase Inhibition Assays. Biochemical assays were performed with commercially available EGFR WT, cytoplasmic domain (669-1210), GST-tagged, Carna (Cat #/Lot #: 08-115/21CBS-0127H), EGFR [T790M/L858R] and EGFR [L858R], cytoplasmic domain (669-1210), GST-tagged, Carna (Cat #/Lot #: 08-510/12CBS-0765M). […] BSA was not included in this experiment to prevent interference with irreversible inhibitor characterization via off-target binding. All reactions were run for 240 minutes at 30° C. Time-dependent fluorescence from the Sox-based substrate was monitored in PerkinElmer ProxiPlate-384 Plus, white shallow well microplates (Cat. #6008280) Biotek Synergy Neo 2 microplate reader with excitation (360 nm) and emission (485 nm) wavelengths. 2 was dosed between 0 and 10 μM in 24-point curves with 1.5-fold dilutions. Fluorescence, determined with identical reactions but lacking purified enzyme or crude cell lysate was subtracted from the total fluorescence signal for each time point, with both determined in duplicate, to obtain corrected relative fluorescence units (RFU). Corrected RFU values then were plotted vs. time and the reaction velocity for the first ~40 min (initial reaction rates) were determined from the slope using GraphPad Prism (La Jolla, CA) with units of RFU/min.

EGFR [T790M/L858R] = target: T2, EGFR [T790M/L858R] (Homo sapiens, UniProt P00533, L858R/T790M); assay: as above; type: biochemical
T2 construct: EGFR [T790M/L858R] and EGFR [L858R], cytoplasmic domain (669-1210), GST-tagged, Carna; GST; purchased Carna 08-510
T2 sequence (P00533 669-1210 T790M/L858R): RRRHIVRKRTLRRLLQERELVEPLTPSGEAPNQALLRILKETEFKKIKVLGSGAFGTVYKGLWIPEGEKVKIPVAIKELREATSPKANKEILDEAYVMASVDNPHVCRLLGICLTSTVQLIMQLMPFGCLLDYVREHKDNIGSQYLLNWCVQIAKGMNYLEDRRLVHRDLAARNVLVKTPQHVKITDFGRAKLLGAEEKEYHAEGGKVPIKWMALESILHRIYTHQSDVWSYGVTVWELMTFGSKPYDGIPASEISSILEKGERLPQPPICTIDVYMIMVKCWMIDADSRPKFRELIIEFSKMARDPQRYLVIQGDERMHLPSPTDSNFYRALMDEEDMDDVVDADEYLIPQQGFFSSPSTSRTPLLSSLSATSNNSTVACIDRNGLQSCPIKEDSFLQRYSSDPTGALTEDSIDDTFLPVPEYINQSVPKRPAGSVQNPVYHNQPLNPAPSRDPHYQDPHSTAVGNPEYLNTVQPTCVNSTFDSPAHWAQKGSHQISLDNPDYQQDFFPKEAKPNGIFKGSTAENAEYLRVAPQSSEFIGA
Procedure: as §1

p38-delta = target: T3, p38-delta (Homo sapiens, UniProt O15264); assay: KINOMEscan; type: binding; settings: 1 μM of compound 4; read-out: POC
T3 construct: purchased Eurofins DiscoverX Corporation (KINOMEscan)

EPHA7 = target: T4, EPHA7 (Homo sapiens, UniProt Q15375); assay: KINOMEscan; type: binding; settings: 1 μM of compound 4; read-out: POC
T4 construct: purchased Eurofins DiscoverX (KINOMEscan service)

EGFR(L858R) = EGFR(L858R) (Homo sapiens, UniProt P00533, L858R); assay: KINOMEscan; type: binding; parameters: purchased Eurofins DiscoverX (KINOMEscan service); settings: 1 μM of compound 4; read-out: POC
Chain of EGFR(L858R) (P00533 25-1210 L858R): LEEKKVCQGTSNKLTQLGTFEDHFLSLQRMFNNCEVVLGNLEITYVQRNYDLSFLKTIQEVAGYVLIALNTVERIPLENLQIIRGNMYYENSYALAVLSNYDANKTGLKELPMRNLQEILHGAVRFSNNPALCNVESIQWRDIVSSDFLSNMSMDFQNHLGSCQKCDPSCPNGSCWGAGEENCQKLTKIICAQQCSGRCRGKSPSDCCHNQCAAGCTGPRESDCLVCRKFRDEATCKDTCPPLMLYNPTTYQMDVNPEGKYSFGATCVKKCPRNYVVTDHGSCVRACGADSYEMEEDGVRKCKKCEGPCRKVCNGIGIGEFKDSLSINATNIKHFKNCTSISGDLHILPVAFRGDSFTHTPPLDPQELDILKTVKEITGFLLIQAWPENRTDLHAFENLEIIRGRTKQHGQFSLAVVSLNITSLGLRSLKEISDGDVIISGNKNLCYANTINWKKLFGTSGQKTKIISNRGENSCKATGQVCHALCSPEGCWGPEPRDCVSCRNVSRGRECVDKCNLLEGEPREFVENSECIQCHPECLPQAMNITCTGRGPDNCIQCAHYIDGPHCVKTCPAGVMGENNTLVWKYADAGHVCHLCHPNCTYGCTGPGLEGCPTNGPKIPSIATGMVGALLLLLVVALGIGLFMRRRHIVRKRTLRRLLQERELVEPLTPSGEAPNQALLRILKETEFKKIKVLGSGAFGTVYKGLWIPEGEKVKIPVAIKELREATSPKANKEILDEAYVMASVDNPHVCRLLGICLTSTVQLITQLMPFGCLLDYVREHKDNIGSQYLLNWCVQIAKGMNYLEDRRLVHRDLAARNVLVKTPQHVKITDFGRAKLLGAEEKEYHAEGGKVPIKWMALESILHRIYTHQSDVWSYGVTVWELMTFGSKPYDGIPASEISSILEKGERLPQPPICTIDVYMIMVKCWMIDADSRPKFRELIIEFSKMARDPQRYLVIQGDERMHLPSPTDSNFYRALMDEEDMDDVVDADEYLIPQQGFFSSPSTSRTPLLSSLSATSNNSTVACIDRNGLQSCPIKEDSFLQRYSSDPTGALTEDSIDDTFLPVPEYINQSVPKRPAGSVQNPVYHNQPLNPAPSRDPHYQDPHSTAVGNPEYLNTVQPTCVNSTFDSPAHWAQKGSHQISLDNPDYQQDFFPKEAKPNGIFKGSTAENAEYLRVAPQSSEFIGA

CAMK2D = CAMK2D (Homo sapiens, UniProt Q13557); assay: KINOMEscan; type: binding; settings: 1 μM of compound 4; read-out: POC
Chain of CAMK2D (Q13557 whole entry): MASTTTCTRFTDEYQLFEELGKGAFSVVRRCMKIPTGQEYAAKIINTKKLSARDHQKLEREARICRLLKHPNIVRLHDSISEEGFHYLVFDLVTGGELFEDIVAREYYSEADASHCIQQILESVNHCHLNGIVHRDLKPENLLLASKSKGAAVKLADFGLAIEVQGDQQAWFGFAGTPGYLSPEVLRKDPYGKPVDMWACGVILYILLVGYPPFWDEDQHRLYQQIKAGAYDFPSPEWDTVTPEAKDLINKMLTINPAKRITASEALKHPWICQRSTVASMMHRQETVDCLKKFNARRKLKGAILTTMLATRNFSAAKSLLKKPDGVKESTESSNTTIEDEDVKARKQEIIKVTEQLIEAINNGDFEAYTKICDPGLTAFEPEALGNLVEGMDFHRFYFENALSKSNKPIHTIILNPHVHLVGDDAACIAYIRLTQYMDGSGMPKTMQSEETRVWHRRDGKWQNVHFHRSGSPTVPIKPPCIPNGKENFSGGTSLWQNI

DYRK2 = DYRK2 (Homo sapiens, UniProt Q92630); assay: KINOMEscan; type: binding; settings: 1 μM of compound 4; read-out: POC
Chain of DYRK2 (Q92630 whole entry): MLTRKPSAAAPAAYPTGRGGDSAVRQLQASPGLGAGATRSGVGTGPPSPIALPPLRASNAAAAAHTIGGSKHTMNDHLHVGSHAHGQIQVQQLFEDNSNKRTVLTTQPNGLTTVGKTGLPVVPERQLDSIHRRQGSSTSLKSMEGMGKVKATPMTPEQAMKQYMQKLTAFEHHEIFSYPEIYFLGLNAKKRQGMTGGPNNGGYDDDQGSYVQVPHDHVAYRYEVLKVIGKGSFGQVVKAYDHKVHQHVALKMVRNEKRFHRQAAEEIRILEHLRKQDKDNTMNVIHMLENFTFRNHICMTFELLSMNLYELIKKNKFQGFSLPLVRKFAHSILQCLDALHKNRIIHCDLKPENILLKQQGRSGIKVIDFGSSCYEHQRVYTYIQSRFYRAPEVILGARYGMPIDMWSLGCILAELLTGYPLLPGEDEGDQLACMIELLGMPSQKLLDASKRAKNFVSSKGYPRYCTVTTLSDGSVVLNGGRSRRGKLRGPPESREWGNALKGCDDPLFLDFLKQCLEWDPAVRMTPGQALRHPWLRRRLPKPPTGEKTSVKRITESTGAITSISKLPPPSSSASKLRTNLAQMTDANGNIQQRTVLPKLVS

PCTK2 = target: T5, PCTK2 (Homo sapiens, UniProt Q00537); assay: KINOMEscan; type: binding; settings: 1 μM of compound 4; read-out: POC
T5 construct: purchased Eurofins DiscoverX Corporation (KINOMEscan)

STK36 = target: T6, STK36 (Homo sapiens, UniProt Q9NRP7); assay: KINOMEscan; type: binding; settings: 1 μM of compound 4; read-out: POC
T6 construct: purchased Eurofins DiscoverX (KINOMEscan service)

MST3 = MST3 (Homo sapiens, UniProt Q9Y6E0); assay: KINOMEscan; type: binding; settings: 1 μM of compound 4; read-out: POC
EPHA4 = target: T7, EPHA4 (Homo sapiens, UniProt P54764); assay: KINOMEscan; type: binding; settings: 1 μM of compound 4; read-out: POC
T7 construct: purchased Eurofins DiscoverX (KINOMEscan service)

MLCK = MLCK (Homo sapiens, UniProt Q32MK0); assay: KINOMEscan; type: binding; settings: 1 μM of compound 4; read-out: POC
TNK1 = target: T8, TNK1 (Homo sapiens, UniProt Q13470); assay: KINOMEscan; type: binding; settings: 1 μM of compound 4; read-out: POC
T8 construct: purchased Eurofins DiscoverX Corporation
T8 sequence (Q13470 whole entry): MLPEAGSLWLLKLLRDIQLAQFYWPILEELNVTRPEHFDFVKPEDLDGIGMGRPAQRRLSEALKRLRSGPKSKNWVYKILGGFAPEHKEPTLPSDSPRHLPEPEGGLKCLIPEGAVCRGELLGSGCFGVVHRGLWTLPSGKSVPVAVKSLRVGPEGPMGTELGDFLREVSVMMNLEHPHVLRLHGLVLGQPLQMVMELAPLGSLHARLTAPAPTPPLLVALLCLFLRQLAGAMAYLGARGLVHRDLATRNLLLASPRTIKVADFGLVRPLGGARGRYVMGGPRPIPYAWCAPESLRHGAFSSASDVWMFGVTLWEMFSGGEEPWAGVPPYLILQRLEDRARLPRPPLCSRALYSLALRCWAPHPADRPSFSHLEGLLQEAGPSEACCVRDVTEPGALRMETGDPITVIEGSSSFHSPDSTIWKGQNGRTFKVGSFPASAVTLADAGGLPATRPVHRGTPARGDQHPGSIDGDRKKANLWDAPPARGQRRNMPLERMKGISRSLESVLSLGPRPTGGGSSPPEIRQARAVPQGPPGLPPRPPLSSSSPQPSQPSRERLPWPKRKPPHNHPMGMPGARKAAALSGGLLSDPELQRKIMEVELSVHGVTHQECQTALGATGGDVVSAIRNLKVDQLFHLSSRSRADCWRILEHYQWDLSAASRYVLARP

PIKFYVE = PIKFYVE (Homo sapiens, UniProt Q9Y2I7); assay: KINOMEscan; type: binding; settings: 1 μM of compound 4; read-out: POC
CAMK4 = CAMK4 (Homo sapiens, UniProt Q16566); assay: KINOMEscan; type: binding; settings: 1 μM of compound 4; read-out: POC
MELK = MELK (Homo sapiens, UniProt Q14680); assay: KINOMEscan; type: binding; settings: 1 μM of compound 4; read-out: POC
Chain of MELK (Q14680 whole entry): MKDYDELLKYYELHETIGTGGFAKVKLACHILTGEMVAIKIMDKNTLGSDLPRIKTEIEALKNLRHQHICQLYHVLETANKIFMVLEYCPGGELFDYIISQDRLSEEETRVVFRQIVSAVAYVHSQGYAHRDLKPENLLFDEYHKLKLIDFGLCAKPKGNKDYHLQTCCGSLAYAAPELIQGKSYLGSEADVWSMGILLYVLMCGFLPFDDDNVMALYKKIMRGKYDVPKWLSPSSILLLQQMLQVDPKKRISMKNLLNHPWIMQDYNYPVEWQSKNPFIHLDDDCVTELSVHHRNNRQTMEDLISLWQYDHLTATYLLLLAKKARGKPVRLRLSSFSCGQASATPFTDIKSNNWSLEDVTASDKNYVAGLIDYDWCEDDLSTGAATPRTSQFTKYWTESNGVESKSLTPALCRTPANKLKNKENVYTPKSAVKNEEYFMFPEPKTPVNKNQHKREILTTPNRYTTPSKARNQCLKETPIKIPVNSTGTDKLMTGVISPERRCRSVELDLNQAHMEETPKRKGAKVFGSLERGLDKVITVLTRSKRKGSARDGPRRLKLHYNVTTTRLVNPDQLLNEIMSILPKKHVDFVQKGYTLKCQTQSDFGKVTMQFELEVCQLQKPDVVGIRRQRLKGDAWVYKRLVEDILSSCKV

DAPK2 = DAPK2 (Homo sapiens, UniProt Q9UIK4); assay: KINOMEscan; type: binding; settings: 1 μM of compound 4; read-out: POC
PIK3CA(E545K) = PIK3CA(E545K) (Homo sapiens, UniProt P42336, E545K); assay: KINOMEscan; type: binding; settings: 1 μM of compound 4; read-out: POC
DDR1 = DDR1 (Homo sapiens, UniProt Q08345); assay: KINOMEscan; type: binding; settings: 1 μM of compound 4; read-out: POC
IGF1R = IGF1R (Homo sapiens, UniProt P08069); assay: KINOMEscan; type: binding; settings: 1 μM of compound 4; read-out: POC
VEGFR2 = target: T9, VEGFR2 (Homo sapiens, UniProt P35968); assay: KINOMEscan; type: binding; settings: 1 μM of compound 4; read-out: POC
T9 construct: purchased Eurofins DiscoverX

[1] = target: T10, RSK2(Kin.Dom.2-C-terminal) (Homo sapiens, UniProt P51812); assay: KINOMEscan; type: binding; settings: 1 μM of compound 4; read-out: POC
T10 construct: RSK2(Kin.Dom.2-C-terminal); purchased Eurofins DiscoverX Corporation (KINOMEscan screening service)
T10 sequence (P51812 422-679 limits assumed): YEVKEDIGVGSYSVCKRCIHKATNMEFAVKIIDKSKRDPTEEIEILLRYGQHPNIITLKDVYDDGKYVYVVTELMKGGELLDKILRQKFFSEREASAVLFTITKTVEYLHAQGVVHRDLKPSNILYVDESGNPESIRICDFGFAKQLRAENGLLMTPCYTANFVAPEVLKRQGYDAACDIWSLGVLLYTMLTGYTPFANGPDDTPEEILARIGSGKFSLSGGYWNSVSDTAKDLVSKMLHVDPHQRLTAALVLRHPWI

CDKL2 = CDKL2 (Homo sapiens, UniProt Q92772); assay: KINOMEscan; type: binding; settings: 1 μM of compound 4; read-out: POC
FGFR3(G697C) = target: T11, FGFR3(G697C) (Homo sapiens, UniProt P22607, G697C); assay: KINOMEscan; type: binding; settings: 1 μM of compound 4; read-out: POC
T11 construct: purchased Eurofins DiscoverX Corporation

PDGFRA = target: T12, PDGFRA (Homo sapiens, UniProt P16234); assay: KINOMEscan; type: binding; settings: 1 μM of compound 4; read-out: POC
T12 construct: purchased Eurofins DiscoverX Corporation (KINOMEscan)

AXL = AXL (Homo sapiens, UniProt P30530); assay: KINOMEscan; type: binding; settings: 1 μM of compound 4; read-out: POC
MST1R = MST1R (Homo sapiens, UniProt Q04912); assay: KINOMEscan; type: binding; settings: 1 μM of compound 4; read-out: POC
CDK8 = CDK8 (Homo sapiens, UniProt P49336); assay: KINOMEscan; type: binding; settings: 1 μM of compound 4; read-out: POC
PRKR = PRKR (Homo sapiens, UniProt P19525); assay: KINOMEscan; type: binding; settings: 1 μM of compound 4; read-out: POC

T1 sequence (P00533 669-1210): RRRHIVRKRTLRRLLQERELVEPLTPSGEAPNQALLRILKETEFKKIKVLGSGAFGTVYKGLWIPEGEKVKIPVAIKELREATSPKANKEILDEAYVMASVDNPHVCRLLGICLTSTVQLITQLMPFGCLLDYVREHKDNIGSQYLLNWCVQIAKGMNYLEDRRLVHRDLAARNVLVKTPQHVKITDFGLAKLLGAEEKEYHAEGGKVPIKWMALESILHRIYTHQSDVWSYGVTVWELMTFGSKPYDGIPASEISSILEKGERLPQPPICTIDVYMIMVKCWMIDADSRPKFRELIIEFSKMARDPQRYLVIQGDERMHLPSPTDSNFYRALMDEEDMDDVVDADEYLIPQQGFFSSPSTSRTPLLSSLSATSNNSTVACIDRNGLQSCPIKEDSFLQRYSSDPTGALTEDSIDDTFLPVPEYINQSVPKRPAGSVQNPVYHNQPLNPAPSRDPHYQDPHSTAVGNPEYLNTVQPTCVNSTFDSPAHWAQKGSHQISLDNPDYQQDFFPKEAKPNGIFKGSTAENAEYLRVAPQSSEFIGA

SMILES: C=CC(=O)Nc1ccc(OC)c(Nc2cc(-c3[nH]c(CC)nc3-c3cccc(NC(=O)c4cccc5c4NC(=O)c4ccccc4N5)c3)ccn2)c1 [Compound 4, N-(3-(5-(2-((5-Acrylamido-2-methoxyphenyl)amino)pyridin-4-yl)-2-ethyl-1H-imidazol-4-yl)phenyl)-11-oxo-10,11-dihydro-5H-dibenzo[b,e][1,4]diazepine-9-carboxamide]
- Ki (EGFR WT): 1200 ± 40 nM
- kinact (EGFR WT): 0.003 s⁻¹
- kinact/KI (EGFR WT): 2500 ± 10 M⁻¹ s⁻¹
- Ki (EGFR [T790M/L858R]; read-out: KI, LRTM): 1600 ± 100 nM
- kinact (EGFR [T790M/L858R]; read-out: kinact, LRTM (converted)): 0.00167 s⁻¹
- kinact/KI (EGFR [T790M/L858R]; read-out: kinact/KI, LRTM): 1070 ± 40 M⁻¹ s⁻¹
- remaining binding at 1 µM (p38-delta): 100%
- remaining binding at 1 µM (EPHA7): 100%
- remaining binding at 1 µM (EGFR(L858R)): 5%
- remaining binding at 1 µM (CAMK2D): 88%
- remaining binding at 1 µM (DYRK2): 75%
- remaining binding at 1 µM (PCTK2): 100%
- remaining binding at 1 µM (STK36): 30%
- remaining binding at 1 µM (MST3): 73%
- remaining binding at 1 µM (EPHA4): 95%
- remaining binding at 1 µM (MLCK): 86%
- remaining binding at 1 µM (TNK1): 22%
- remaining binding at 1 µM (PIKFYVE): 94%
- remaining binding at 1 µM (CAMK4): 99%
- remaining binding at 1 µM (MELK): 100%
- remaining binding at 1 µM (DAPK2): 100%
- remaining binding at 1 µM (PIK3CA(E545K)): 100%
- remaining binding at 1 µM (DDR1): 90%
- remaining binding at 1 µM (IGF1R): 90%
- remaining binding at 1 µM (VEGFR2): 100%
- remaining binding at 1 µM [1]: 100%
- remaining binding at 1 µM (CDKL2): 100%
- remaining binding at 1 µM (FGFR3(G697C)): 100%
- remaining binding at 1 µM (PDGFRA): 69%
- remaining binding at 1 µM (AXL): 98%
- remaining binding at 1 µM (MST1R): 85%
- remaining binding at 1 µM (CDK8): 81%
- remaining binding at 1 µM (PRKR): 87%
